Measurements from patent publication US20050004167A1, “Branched chain amino acid-dependent aminotransferase inhibitors and their use in the treatment of neurodegenerative diseases” (WARNER-LAMBERT COMPANY LLC, priority 2001, published 2005).
Where “and” joins values, the source holds several entries; their conditions need not be identical. Identical values can stand only once.

Key:
rat BCAT cytosolic form = molecular target: T1, rat BCAT cytosolic form (Rattus norvegicus, UniProt P54690); assay: In vitro coupled enzyme assay (glutamate dehydrogenase, NADH formation), rat BCATc; assay type: biochemical; conditions: recombinant rat BCATc, 37° C., 25 mM phosphate buffer pH 7.8; several values in a cell = repeat determinations; read-out: RrBCATc
T1 construct: made in house; host or cells: E. coli BL21(DE3)
T1 sequence (P54690 1-411): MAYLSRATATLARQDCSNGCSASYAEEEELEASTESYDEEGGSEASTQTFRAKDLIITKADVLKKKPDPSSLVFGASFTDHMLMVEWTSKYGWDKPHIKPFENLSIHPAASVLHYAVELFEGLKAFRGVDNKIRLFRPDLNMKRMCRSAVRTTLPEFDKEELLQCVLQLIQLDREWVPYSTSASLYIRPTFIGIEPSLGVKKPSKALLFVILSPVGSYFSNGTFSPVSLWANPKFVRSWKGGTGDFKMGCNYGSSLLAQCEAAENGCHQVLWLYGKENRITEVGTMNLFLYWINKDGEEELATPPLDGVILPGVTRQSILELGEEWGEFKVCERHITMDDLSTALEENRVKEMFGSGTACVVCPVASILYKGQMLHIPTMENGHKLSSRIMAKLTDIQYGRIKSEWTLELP
How it was run: (§1)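 At 37 °C in 25 mM phosphate pH 7.8 with 2 mM DTT, 1.25 μg His-tag-purified E. coli-expressed BCAT transaminated 750 μM L-leucine with 500 μM α-ketoglutarate and 10 μM PLP. Glutamate was coupled via glutamate dehydrogenase (1 mM NAD+, 4 mM ADP) to NADH formation at 340 nm. Compounds were added in DMSO up to 5% v/v.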

[1] = molecular target: T2, human Branched Chain Amino Acid Aminotransferase cytosolic form (hBCATc) (Homo sapiens, UniProt P54687); assay: In vitro coupled enzyme assay (glutamate dehydrogenase, NADH formation), human BCATc; assay type: biochemical; conditions: recombinant human BCATc, 37° C., 25 mM phosphate buffer pH 7.8; several values in a cell = repeat determinations; read-out: RhBCATc
T2 construct: made in house; host or cells: E. coli BL21(DE3)
T2 sequence (P54687 1-386): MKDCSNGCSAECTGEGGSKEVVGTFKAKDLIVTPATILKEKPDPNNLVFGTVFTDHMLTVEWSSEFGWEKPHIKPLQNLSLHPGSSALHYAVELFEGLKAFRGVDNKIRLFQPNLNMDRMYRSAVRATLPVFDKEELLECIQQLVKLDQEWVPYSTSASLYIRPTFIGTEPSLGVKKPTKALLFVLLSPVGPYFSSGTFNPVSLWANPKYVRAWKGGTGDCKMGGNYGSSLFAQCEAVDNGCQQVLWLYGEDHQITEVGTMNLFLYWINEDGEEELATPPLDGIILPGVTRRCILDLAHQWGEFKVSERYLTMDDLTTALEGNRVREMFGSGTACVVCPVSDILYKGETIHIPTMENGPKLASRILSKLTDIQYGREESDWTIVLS
How it was run: as §1

Compound | IC50 (rat BCAT cytosolic form) | IC50 [1] | melting point
Cc1cccc(S(=O)(=O)NNC(=O)c2cc3cc(Cl)cc(Cl)c3o2)c1 [Example 72, 2-Benzofurancarboxylic acid, 5,7-dichloro 2-[(3-methylphenyl)sulfonyl]-hydrazide] | 1860 nM | > 10 µM and 5.35 µM | 230.4 to 231.1 °C
O=C(NNS(=O)(=O)c1cccc(Br)c1)c1cc2cc(Cl)cc(Cl)c2o1 [Example 74, 2-Benzofurancarboxylic acid, 5,7-dichloro 2-[(3-bromophenyl)sulfonyl]-hydrazide] | 3710 nM | 64.5 µM | 248.5 to 248.8 °C
O=C(NNS(=O)(=O)c1ccccc1C(F)(F)F)c1cnc2ccccc2c1 [Example 135, 3-Quinolinecarboxylic acid, 2-[(2-trifluoromethylphenyl)sulfonyl]hydrazide] | 2800 nM | 13 µM | 203.6 to 204.4 °C
O=C(NNS(=O)(=O)c1ccccc1OC(F)(F)F)c1cnc2ccccc2c1 [Example 137, 3-Quinolinecarboxylic acid, 2-[(2-trifluoromethoxyphenyl)sulfonyl]hydrazide] | 14000 nM | 41 µM | 175.1 to 175.9 °C

Further compounds by falling IC50 (rat BCAT cytosolic form), results first:

IC50 (rat BCAT cytosolic form) | IC50 [1] | melting point | Compound
3300 nM | 17.9 µM | 181 to 183 °C | O=C(NNS(=O)(=O)c1ccccc1)c1ccc2c(c1)CCO2 [Example 149, 2,3-Dihydro-benzofuran-5-carboxylic acid 2-(phenylsulfonyl)hydrazide]
1510 nM | 11.2 µM | 234.5 to 236.1 °C | O=C(NNS(=O)(=O)c1ccccc1OC(F)(F)F)c1cc2cc(Cl)cc(Cl)c2o1 [Example 76, 2-Benzofurancarboxylic acid, 5,7-dichloro 2-[[2-(trifluoromethoxy)phenyl]-sulfonyl]hydrazide]
880 nM | 6.57 µM | 212 to 214 °C | Cc1ccccc1S(=O)(=O)NNC(=O)c1cc2cc(Cl)cc(Cl)c2o1 [Example 71, 2-Benzofurancarboxylic acid, 5,7-dichloro 2-[(2-methylphenyl)sulfonyl]hydrazide]
880 nM | > 10 µM and 5.4 µM | 245.6 to 245.7 °C | O=C(NNS(=O)(=O)c1cccc(Cl)c1)c1cc2cc(Cl)cc(Cl)c2o1 [Example 75, 2-Benzofurancarboxylic acid, 5,7-dichloro 2-[(3-chlorophenyl)sulfonyl]-hydrazide]
